Activity calls are given as the source filed them. The rule behind the calls is not given here.
Columns and labels:
[1] = target: Serine/threonine-protein kinase 26 (Homo sapiens) (UniProt Q9P289); assay: Inhibition of MST4 ATP labeling site in human Huh-7 cells at 10 uM by KiNativ Profiling analysis relative to control; format: cell-based
[2] = target: T1, Eukaryotic translation initiation factor 2-alpha kinase 3 (Homo sapiens) (UniProt Q9NZJ5); assay: Inhibition of PEK K2 labeling site in human Huh-7 cells at 1 uM by KiNativ Profiling analysis relative to control; format: cell-based
T1 sequence (whole entry): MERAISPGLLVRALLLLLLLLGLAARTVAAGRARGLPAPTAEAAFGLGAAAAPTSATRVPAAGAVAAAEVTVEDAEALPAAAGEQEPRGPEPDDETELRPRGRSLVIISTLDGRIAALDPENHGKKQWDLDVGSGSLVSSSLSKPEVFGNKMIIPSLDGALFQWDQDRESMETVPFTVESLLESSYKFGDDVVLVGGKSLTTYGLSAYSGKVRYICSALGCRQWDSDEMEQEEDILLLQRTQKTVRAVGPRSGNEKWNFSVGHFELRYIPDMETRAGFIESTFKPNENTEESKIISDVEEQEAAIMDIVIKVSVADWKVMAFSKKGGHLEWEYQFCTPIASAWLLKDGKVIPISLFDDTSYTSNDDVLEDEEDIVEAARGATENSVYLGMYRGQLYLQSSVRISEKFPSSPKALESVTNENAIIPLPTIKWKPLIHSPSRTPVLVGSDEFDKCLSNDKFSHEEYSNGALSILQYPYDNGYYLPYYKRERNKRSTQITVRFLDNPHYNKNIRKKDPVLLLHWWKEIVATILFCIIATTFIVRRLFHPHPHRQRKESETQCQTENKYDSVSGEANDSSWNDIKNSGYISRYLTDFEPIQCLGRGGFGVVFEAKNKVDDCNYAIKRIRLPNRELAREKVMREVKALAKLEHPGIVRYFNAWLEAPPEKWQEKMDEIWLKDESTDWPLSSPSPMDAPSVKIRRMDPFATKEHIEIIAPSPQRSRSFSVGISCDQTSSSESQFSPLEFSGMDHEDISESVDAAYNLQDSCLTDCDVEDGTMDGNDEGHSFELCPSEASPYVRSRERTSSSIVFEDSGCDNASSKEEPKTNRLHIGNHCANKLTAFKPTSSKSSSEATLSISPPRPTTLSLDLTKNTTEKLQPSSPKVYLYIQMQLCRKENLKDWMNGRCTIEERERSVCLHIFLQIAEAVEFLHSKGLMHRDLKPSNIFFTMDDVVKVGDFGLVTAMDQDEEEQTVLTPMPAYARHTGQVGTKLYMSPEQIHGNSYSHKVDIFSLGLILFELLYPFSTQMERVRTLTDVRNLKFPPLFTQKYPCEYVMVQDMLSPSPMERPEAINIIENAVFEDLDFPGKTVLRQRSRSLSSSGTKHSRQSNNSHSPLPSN

[3] = target: Proto-oncogene tyrosine-protein kinase Src (Homo sapiens, UniProt P12931); assay: Inhibition of SRC (unknown origin) at 10 uM by Ambit Kinomescan binding assay relative to control; values are per cent of control
[4] = target: Angiopoietin-1 receptor (Homo sapiens) (UniProt Q02763); assay: Inhibition of TIE2 (unknown origin) at 10 uM by Ambit Kinomescan binding assay relative to control; values are per cent of control
[5] = test system: Proto-oncogene tyrosine-protein kinase receptor Ret (Homo sapiens), P07949 [V804L]; assay: Inhibition of RET V804L mutant (unknown origin) at 10 uM by Ambit Kinomescan binding assay relative to control; values are per cent of control
[6] = target: T2, Interleukin-1 receptor-associated kinase 4 (Homo sapiens) (UniProt Q9NWZ3); assay: Inhibition of IRAK4 K2 labeling site in human Huh-7 cells at 10 uM by KiNativ Profiling analysis relative to control; format: cell-based
T2 sequence (whole entry): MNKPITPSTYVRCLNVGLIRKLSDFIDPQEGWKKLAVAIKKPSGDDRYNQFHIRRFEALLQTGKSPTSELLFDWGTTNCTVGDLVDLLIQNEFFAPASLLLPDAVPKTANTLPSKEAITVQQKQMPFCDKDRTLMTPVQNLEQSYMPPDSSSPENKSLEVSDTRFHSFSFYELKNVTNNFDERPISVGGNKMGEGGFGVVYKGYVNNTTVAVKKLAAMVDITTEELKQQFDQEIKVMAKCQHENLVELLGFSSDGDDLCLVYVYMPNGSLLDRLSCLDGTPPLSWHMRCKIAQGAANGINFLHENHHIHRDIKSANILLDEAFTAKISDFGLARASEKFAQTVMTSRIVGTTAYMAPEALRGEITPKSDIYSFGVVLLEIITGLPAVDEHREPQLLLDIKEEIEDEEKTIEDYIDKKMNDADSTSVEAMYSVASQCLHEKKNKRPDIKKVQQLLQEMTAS

[7] = target: Tyrosine-protein kinase Srms (Homo sapiens) (UniProt Q9H3Y6); assay: Inhibition of SRMS (unknown origin) at 10 uM by Ambit Kinomescan binding assay relative to control; values are per cent of control
[8] = target: T2, Interleukin-1 receptor-associated kinase 4 (Homo sapiens); assay: Inhibition of IRAK4 K2 labeling site in human Huh-7 cells at 1 uM by KiNativ Profiling analysis relative to control; format: cell-based
[9] = target: Mitogen-activated protein kinase 8 (Homo sapiens, UniProt P45983); assay: Inhibition of JNK1 (unknown origin) at 1 uM by Ambit Kinomescan binding assay relative to control
[10] = target: Cyclin-dependent kinase 11A (Homo sapiens) (UniProt Q9UQ88); assay: Inhibition of CDC2L2 (unknown origin) at 1 uM by Ambit Kinomescan binding assay relative to control; values are per cent of control
[11] = target: Wee1-like protein kinase (Homo sapiens) (UniProt P30291); assay: Inhibition of WEE1 (unknown origin) at 1 uM by Ambit Kinomescan binding assay relative to control
[12] = target: Serine/threonine-protein kinase PLK1 (Homo sapiens) (UniProt P53350); assay: Inhibition of PLK1 Lys1 labeling site harbouring CFEISDADTKEVFAGKIVPK in human Huh-7 cell lysate at 1 uM by KiNativ Profiling analysis relative to control; format: subcellular
[13] = target: Serine/threonine-protein kinase Nek6 (Homo sapiens) (UniProt Q9HC98); assay: Inhibition of NEK6 Lys2 labeling site harbouring VMHRDIKPANVFITATGVVK in human Huh-7 cells at 1 uM by KiNativ Profiling analysis relative to control; format: cell-based
[14] = target: Ribosomal protein S6 kinase alpha-1 (Homo sapiens) (UniProt Q15418); assay: Inhibition of RSK1 domain2 ACT labeling site in human Huh-7 cell lysate at 1 uM by KiNativ Profiling analysis relative to control; format: subcellular
[15] = target: Dual specificity mitogen-activated protein kinase kinase 1 (Homo sapiens) (UniProt Q02750); assay: Inhibition of MAP2K1 Lys2 labeling site harbouring IMHRDVKPSNILVNSR in human Huh-7 cells at 1 uM by KiNativ Profiling analysis relative to control; format: cell-based
Chain of Dual specificity mitogen-activated protein kinase kinase 1 (Homo sapiens) (Q02750 whole entry): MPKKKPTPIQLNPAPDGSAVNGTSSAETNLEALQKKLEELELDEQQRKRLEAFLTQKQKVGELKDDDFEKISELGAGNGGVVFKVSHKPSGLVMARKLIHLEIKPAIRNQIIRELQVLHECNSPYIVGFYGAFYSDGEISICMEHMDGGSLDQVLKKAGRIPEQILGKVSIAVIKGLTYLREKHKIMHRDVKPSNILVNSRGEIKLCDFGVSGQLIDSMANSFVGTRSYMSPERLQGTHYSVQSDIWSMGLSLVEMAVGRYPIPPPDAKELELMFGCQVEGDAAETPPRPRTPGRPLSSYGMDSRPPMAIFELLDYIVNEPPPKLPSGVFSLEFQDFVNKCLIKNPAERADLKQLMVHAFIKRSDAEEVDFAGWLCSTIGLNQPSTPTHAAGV

Chain of Proto-oncogene tyrosine-protein kinase Src (P12931 2-536 limits assumed): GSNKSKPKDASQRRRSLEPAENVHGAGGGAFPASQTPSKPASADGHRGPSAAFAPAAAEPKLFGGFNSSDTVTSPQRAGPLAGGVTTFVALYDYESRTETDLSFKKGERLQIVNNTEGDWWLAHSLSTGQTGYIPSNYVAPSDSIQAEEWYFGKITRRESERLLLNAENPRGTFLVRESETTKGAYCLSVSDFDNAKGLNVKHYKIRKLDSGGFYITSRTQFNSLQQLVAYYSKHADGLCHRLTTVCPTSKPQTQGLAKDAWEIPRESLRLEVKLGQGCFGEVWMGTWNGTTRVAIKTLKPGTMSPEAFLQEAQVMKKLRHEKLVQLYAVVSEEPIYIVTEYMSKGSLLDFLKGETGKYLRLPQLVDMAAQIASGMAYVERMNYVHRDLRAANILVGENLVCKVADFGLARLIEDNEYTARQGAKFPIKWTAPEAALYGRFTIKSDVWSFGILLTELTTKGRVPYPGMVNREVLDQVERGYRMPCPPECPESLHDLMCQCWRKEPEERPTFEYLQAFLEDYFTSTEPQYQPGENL
Chain of Serine/threonine-protein kinase 26 (Homo sapiens) (Q9P289 2-416 limits assumed): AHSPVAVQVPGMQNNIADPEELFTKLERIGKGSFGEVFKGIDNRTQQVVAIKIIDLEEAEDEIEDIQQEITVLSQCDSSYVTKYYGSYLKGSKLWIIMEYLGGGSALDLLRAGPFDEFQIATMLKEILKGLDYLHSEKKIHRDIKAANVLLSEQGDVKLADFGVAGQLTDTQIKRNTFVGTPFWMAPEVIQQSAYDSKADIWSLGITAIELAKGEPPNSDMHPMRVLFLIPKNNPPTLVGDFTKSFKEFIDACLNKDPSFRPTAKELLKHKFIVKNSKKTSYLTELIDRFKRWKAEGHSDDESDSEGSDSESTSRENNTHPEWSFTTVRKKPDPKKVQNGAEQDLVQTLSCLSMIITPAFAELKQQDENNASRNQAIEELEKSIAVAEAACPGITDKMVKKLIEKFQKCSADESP
Chain of Cyclin-dependent kinase 11A (Homo sapiens) (Q9UQ88 whole entry): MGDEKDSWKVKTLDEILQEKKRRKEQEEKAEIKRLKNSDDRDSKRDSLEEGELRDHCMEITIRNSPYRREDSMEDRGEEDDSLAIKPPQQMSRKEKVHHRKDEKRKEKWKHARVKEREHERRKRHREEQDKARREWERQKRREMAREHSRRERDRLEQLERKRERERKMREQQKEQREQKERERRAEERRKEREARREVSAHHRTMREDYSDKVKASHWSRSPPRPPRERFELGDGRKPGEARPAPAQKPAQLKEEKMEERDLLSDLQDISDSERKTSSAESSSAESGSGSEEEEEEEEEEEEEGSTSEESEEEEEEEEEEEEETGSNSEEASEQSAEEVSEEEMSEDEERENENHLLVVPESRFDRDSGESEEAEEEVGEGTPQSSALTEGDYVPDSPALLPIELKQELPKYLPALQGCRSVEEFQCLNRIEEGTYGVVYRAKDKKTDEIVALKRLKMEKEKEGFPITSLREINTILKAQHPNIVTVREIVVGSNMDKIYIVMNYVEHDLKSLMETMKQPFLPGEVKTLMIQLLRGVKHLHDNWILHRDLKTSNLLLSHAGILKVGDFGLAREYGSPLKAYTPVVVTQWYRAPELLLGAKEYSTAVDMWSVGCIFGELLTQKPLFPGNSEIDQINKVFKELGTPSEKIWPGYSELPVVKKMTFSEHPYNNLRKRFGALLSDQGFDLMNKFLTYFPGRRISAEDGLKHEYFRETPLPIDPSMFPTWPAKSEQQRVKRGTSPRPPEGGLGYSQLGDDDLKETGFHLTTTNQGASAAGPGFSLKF
Chain of Tyrosine-protein kinase Srms (Homo sapiens) (Q9H3Y6 whole entry): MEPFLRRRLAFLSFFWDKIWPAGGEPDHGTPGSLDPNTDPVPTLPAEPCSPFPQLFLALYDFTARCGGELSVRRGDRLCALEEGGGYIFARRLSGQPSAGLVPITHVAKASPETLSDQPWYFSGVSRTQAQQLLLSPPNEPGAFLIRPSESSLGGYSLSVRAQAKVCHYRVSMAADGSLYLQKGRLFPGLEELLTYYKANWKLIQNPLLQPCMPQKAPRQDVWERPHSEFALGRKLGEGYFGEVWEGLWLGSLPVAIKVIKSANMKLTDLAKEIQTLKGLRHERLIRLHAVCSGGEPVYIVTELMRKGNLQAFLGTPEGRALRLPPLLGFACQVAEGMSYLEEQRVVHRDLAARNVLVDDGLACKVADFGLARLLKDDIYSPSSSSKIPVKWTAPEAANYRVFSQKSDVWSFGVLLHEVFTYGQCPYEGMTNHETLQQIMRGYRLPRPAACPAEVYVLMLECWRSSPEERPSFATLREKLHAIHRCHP
Chain of Mitogen-activated protein kinase 8 (P45983 whole entry): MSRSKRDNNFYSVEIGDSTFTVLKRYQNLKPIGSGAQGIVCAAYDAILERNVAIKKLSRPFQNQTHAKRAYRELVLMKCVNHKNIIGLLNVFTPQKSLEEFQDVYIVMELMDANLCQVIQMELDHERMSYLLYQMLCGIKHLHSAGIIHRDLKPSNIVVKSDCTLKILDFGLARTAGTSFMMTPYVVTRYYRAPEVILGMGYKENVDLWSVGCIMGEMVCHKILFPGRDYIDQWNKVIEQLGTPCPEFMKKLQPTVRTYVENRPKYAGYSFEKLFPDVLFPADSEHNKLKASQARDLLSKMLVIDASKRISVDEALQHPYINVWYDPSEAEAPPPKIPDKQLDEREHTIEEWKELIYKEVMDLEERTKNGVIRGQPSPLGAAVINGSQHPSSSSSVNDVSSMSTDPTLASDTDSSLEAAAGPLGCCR
Chain of Angiopoietin-1 receptor (Homo sapiens) (Q02763 whole entry): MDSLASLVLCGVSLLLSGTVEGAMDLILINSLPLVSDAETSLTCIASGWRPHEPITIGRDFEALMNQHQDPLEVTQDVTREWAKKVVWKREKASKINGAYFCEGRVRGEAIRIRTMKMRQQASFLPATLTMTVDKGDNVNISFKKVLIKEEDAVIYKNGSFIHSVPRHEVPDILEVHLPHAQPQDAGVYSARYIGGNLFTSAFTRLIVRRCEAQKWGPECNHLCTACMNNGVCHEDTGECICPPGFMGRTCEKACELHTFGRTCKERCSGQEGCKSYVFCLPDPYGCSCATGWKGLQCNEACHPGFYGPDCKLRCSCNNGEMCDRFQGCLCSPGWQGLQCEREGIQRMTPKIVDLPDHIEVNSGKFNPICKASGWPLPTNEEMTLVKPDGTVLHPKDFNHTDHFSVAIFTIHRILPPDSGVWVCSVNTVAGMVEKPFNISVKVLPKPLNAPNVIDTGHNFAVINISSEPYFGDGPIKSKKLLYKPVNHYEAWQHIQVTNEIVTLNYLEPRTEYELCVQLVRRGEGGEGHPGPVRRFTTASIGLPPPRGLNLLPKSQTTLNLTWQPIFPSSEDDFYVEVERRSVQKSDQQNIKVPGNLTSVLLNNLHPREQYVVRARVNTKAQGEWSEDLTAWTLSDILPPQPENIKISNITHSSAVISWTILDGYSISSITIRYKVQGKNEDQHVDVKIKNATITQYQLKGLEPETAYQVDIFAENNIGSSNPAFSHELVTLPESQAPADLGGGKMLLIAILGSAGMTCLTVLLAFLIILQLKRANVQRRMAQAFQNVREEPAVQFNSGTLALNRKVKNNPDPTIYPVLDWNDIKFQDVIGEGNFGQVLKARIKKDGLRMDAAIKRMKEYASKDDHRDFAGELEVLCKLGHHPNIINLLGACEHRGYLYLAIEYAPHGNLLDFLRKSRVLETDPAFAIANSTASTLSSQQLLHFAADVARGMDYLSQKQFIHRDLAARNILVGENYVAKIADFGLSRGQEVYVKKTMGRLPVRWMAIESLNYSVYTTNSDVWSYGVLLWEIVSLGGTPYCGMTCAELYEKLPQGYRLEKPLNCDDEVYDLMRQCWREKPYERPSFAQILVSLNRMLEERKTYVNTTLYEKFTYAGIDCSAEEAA
Chain of Serine/threonine-protein kinase Nek6 (Homo sapiens) (Q9HC98 whole entry, the tested form may be a part): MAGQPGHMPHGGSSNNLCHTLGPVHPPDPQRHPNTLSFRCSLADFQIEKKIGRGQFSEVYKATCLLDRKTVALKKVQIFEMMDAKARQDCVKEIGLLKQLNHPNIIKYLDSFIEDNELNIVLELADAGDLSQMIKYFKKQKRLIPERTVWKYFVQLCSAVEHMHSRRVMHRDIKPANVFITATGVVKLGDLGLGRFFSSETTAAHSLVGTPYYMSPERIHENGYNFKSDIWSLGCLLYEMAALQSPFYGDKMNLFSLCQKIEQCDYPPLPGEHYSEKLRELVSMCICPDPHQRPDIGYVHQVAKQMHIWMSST

For `CCN1CCN(Cc2ccc(NC(=O)c3ccc(C)c(Oc4ccnc5[nH]ccc45)c3)cc2C(F)(F)F)CC1`, the inhibition [1] was 25.3%, the inhibition [2] was “inactive” and the residual activity [3] was 0.2%. For the same compound, the residual activity [4] was 0%, the residual activity [5] was 0.8% and the inhibition [6] was 17.8%. For the same compound, the residual activity [7] was 4.6% and the inhibition [8] was -9.1%.

Compound `CCN1CCN(Cc2ccc(NC(=O)c3ccc(C)c(/C=C/c4cnc5[nH]ccc5c4OC)c3)cc2C(F)(F)F)CC1` has an inhibition [9] of 77%, a residual activity [10] of 70% and an inhibition [11] of 100%.

`CNc1cc(Oc2cc(C(=O)Nc3cc(N4CCN(C)CC4)cc(C(F)(F)F)c3)ccc2C)ncn1` was tested, and the inhibition [12] was 1%, the inhibition [13] was 6.9% and the inhibition [14] was 1.9%. The inhibition [15] was 16.6%.

From ChEMBL document CHEMBL5696442, “Discovery of type II inhibitors of TGFβ-activated kinase 1 (TAK1) and mitogen-activated protein kinase kinase kinase kinase 2 (MAP4K2)” (J Med Chem, 2015)
